In series [1] the test system is Bacillus subtilis. As to the kind of experiment: Antibacterial activity against Bacillus subtilis ATCC6051 assessed as inhibition of bacterial growth incubated for 1 hr followed by TSB addition and measured after 18 to 24 hrs by microbroth dilution assay. In kind it is functional. Conditions: time 19-25 hrs. On the technique in general: In broth dilution the organism is exposed to a series of concentrations in liquid medium.

For series [2], the system named is Cell membrane. As to the kind of experiment: Induction of membrane permeabilization in Escherichia coli assessed as increase in fluorescence intensity at 2 uM by PI staining based fluorescence spectrophotometric analysis. In kind it is subcellular.
The subject of series [3] is Bacillus subtilis. As to the kind of experiment: Antibacterial activity against Bacillus subtilis ATCC6051 assessed as inhibition of bacterial growth at 100 uM incubated for 3 hrs by radial diffusion assay. In kind it is functional, organism-based.
The next series relates to HEK293. As to the kind of experiment: Cytotoxicity against HEK293 cells assessed as effect on cell metabolic activity at 18.2 uM incubated for overnight by MTS assay. Conditions: human, hek293, 18.2 µM. It counts as toxicity, cell-based. A general note: Formazan colour is commonly taken as a measure of viable cells.
Series [4] relates to Cell membrane. Put plainly: Induction of membrane translocation in Escherichia coli spheroplasts assessed as increase in fluorescence intensity using FITC-labeled compound by confocal microscopy. It counts as subcellular.
For a further series, the system named is Escherichia coli. As to the kind of experiment: Antibacterial activity against Escherichia coli Top10 assessed as inhibition of bacterial growth at 100 uM incubated for 3 hrs by radial diffusion assay. In kind it is functional, organism-based.

Values after ≈ are worked out from the molar mass of the structure shown. Active and inactive are the calls of the source. The rule behind the calls is not given here.

Usually MIC stands for the least concentration at which growth counts as inhibited. Turning to `CC(C)C[C@H](NC(=O)CNC(=O)[C@H](C)NC(=O)[C@H](CCCNC(=N)N)NC(=O)[C@H](CO)NC(=O)[C@H](CO)NC(=O)[C@H](CCCNC(=N)N)NC(=O)[C@@H](N)[C@@H](C)O)C(=O)N[C@@H](CCC(N)=O)C(=O)N[C@@H](Cc1c[nH]c2ccccc12)C(=O)N1CCC[C@H]1C(=O)N[C@H](C(=O)NCC(=O)N[C@@H](CCCNC(=N)N)C(=O)N[C@H](C(=O)N[C@@H](Cc1cnc[nH]1)C(=O)N[C@@H](CCCNC(=N)N)C(=O)N[C@@H](CC(C)C)C(=O)N[C@@H](CC(C)C)C(=O)N[C@@H](CCCNC(=N)N)C(=O)N[C@@H](CCCCN)C(=O)O)C(C)C)C(C)C`, the MIC in the series with Bacillus subtilis [1] turned out to be 18.2 µM (≈ 45 µg/mL). Besides, the result in the series on Cell membrane [2], in the series with Bacillus subtilis [3], in the series with Cell membrane [4] and in the series with Escherichia coli was Active. Besides, in the series on HEK293, the Activity result was “Non-Toxic”.

`CC[C@H](C)[C@H](NC(=O)[C@H](CCCNC(=N)N)NC(=O)[C@@H](NC(=O)[C@H](CCCCN)NC(=O)[C@H](CCCCN)NC(=O)[C@H](CC(N)=O)NC(=O)[C@H](CC(=O)O)NC(=O)[C@H](CCCNC(=N)N)NC(=O)[C@H](C)N)[C@@H](C)O)C(=O)N[C@@H](Cc1c[nH]c2ccccc12)C(=O)N1CCC[C@H]1C(=O)N[C@@H](CCCNC(=N)N)C(=O)N[C@@H](Cc1cnc[nH]1)C(=O)N[C@@H](CC(C)C)C(=O)N[C@@H](CCC(N)=O)C(=O)N[C@@H](CC(C)C)C(=O)N[C@@H](C)C(=O)N[C@H](C(=O)N[C@@H](CCCNC(=N)N)C(=O)N[C@@H](CC(N)=O)C(=O)N[C@H](C(=O)N[C@@H](CCCNC(=N)N)C(=O)N[C@@H](CO)C(=O)N[C@@H](CO)C(=O)N[C@@H](CCCNC(=N)N)C(=O)N[C@@H](C)C(=O)NCC(=O)N[C@@H](CC(C)C)C(=O)N[C@@H](CCC(N)=O)C(=O)N[C@@H](Cc1c[nH]c2ccccc12)C(=O)N1CCC[C@H]1C(=O)N[C@H](C(=O)NCC(=O)N[C@@H](CCCNC(=N)N)C(=O)N[C@H](C(=O)N[C@@H](Cc1cnc[nH]1)C(=O)N[C@@H](CCCNC(=N)N)C(=O)N[C@@H](CC(C)C)C(=O)N[C@@H](CC(C)C)C(=O)N[C@@H](CCCNC(=N)N)C(=O)N[C@@H](CCCCN)C(=O)O)C(C)C)C(C)C)[C@@H](C)O)C(C)C`: the result with Cell membrane [2], in the series on Bacillus subtilis [3], in the series on Cell membrane [4] and with Escherichia coli was Active. Further, the Activity entry in the series on HEK293 is reported as “Non-Toxic”.

For the origin of these results see ChEMBL document CHEMBL6127153, “Hybrids of Membrane-Translocating Antimicrobial Peptides Show Enhanced Activity through Membrane Permeabilization” (ACS Med Chem Lett, 2024).
